Data reported in patent US20140370320A1, “WOOD PRESERVATIVE” (Arch Wood Protection Pty Ltd, priority 2011, published 2014).

Legend:
[1] = system: decay of Radiata pine sapwood panels (field exposure, Hawaii); test: Hawaiian field trial, flat panel test on treated radiata pine sapwood panels
Description: Radiata pine sapwood panels (200×70×25 mm) were treated with various preservatives and exposed on racks at 45°, using a method generally described as the “flat panel test” (Reference: Australasian Wood Preservation Committee, Protocols for Assessment of Wood Preservatives, March 2007 Revision, pp. 32). Untreated controls, solvent-treated controls and panels treated with reference preservatives (e.g., CCA) were also included in this field test. Note: All formulations contained the insecticide permethrin at a concentration sufficient to deliver approximately 0.02% m/m active in the treated panels. After approximately three years outdoor exposure in Hawaii, the specimens were rated using a typical 0 to 10 rating system (e.g., Evaluation Standard […], AWPA Book of Standards, 2010, American Wood Protection Association, Birmingham, Ala.), where 7 is the lowest score where the specimen is deemed still to be serviceable.

Coniophora olivacea = test: Laboratory fungal bioassay (Example 6), mass loss of treated, leached radiata pine sapwood; format: cell-based
Description: (§1) The bioassay was carried out in accordance with recognised methods (see, Protocols for the Assessment of Wood Preservatives, Australasian Wood Preservation Committee, March 2007 Revision, Ensis, Clayton).
(§2) Radiata pine sapwood (20×20×10 mm) specimens were treated with various preservative formulations. After drying the specimens were saturated with water and leached in a shaking water-bath at 35° C. for seven days, with daily changes of water. After leaching, the specimens were vacuum oven dried, before being sterilised in readiness for the fungal bioassay. The bioassay was carried out in accordance with standard laboratory techniques, by an independent research provider.
(§3) Mass loss was used to determine the effectiveness of a preservative treatment. […] Decay is deemed to have been prevented if the mass loss is less than 3%.
Some basidiomycete decay fungi are more tolerant to azoles that others. In this bioassay, a selection of brown rot fungi were chosen. One of those chosen, Coniophora olivacea, is relatively resistant to azoles.

Fomitopsis lilacinogilva = test: as above; format: cell-based
Description: as §1, §2, §3
Fomitopsis lilacinogilva is a wood-rotting bracket fungus common in many places of Gondwanaland origin. It is found on logs, stumps, and some outdoor wooden constructions. It forms fans, shelves, pads or crusts, to 100 mm across, is hairy, crusted above, zoned pinkish and brownish. The results against Fomitopsis lilacinogilva were less spectacular. Azole/zinc 1:2 gave 10% mass loss; 1:1 gave 15.9% mass loss; and azoles alone gave 19.9% mass loss versus the control (71.5% mass loss).

[2] = retention 0.1% m/m (as Zn metal)
[3] = retention 0.2% m/m (as Zn metal)
[4] = retention 0.3% m/m (as Zn metal)

Substance	Comment (decay state of panels) ([1]; retention 0.11% m/m Cu, approx. three years outdoor exposure in Hawaii, permethrin approx. 0.02% m/m)	Minimum effective retention to prevent decay, as copper ([1]; three year inspection, Hawaii, expressed as copper) [% m/m]	C. olivacea Mass Loss (%) (Coniophora olivacea; [2])	C. olivacea Mass Loss (%) (Coniophora olivacea; [3])	C. olivacea Mass Loss (%) (Coniophora olivacea; [4])	F. lilacinogilva Mass Loss (%) (Fomitopsis lilacinogilva; [2])	F. lilacinogilva Mass Loss (%) (Fomitopsis lilacinogilva; [3])	F. lilacinogilva Mass Loss (%) (Fomitopsis lilacinogilva; [4])
copper naphthenate	Heavily decayed	> 0.11	–	–	–	–	–	–
zinc naphthenate [ZnN]	–	–	50.5	42.8	28.4	65.8	60.2	53.5
